Assay results as given in ChEMBL document CHEMBL4004849, “Tetrazolylmethyl quinolines: Design, docking studies, synthesis, anticancer and antifungal analyses” (2017).
Active and inactive are the calls of the source.

Assays:
Assay type in all cases: functional
MOLT-4 = experiment: Growth inhibition of human MOLT4 cells at 10^-5 M incubated for 48 hrs by sulforhodamine B assay relative to control
Candida albicans [1] = experiment: Antifungal activity against Candida albicans after 24 hrs by serial dilution method
NCI-H226 = experiment: Growth inhibition of human NCI-H226 cells at 10^-5 M incubated for 48 hrs by sulforhodamine B assay relative to control
SR = experiment: Growth inhibition of human SR cells at 10^-5 M incubated for 48 hrs by sulforhodamine B assay relative to control
HCC 2998 = experiment: Growth inhibition of human HCC2998 cells at 10^-5 M incubated for 48 hrs by sulforhodamine B assay relative to control
LOX IMVI = experiment: Growth inhibition of human LOXIMVI cells at 10^-5 M incubated for 48 hrs by sulforhodamine B assay relative to control
SK-MEL-2 = experiment: Growth inhibition of human SK-MEL-2 cells at 10^-5 M incubated for 48 hrs by sulforhodamine B assay relative to control
SNB-19 = experiment: Growth inhibition of human SNB19 cells at 10^-5 M incubated for 48 hrs by sulforhodamine B assay relative to control
BT-549 = experiment: Growth inhibition of human BT549 cells at 10^-5 M incubated for 48 hrs by sulforhodamine B assay relative to control
SK-OV-3 = experiment: Growth inhibition of human SKOV3 cells at 10^-5 M incubated for 48 hrs by sulforhodamine B assay relative to control
U-251 = experiment: Growth inhibition of human U251 cells at 10^-5 M incubated for 48 hrs by sulforhodamine B assay relative to control
Aspergillus fumigatus [2] = experiment: Antifungal activity against Aspergillus fumigatus at 100 ug/ml by disc diffusion method; settings: read-out: IZ
RXF 393 = experiment: Growth inhibition of human RXF393 cells at 10^-5 M incubated for 48 hrs by sulforhodamine B assay relative to control
OVCAR-4 = experiment: Growth inhibition of human OVCAR4 cells at 10^-5 M incubated for 48 hrs by sulforhodamine B assay relative to control
IGROV-1 = experiment: Growth inhibition of human IGROV1 cells at 10^-5 M incubated for 48 hrs by sulforhodamine B assay relative to control
SK-MEL-28 = experiment: Growth inhibition of human SK-MEL-28 cells at 10^-5 M incubated for 48 hrs by sulforhodamine B assay relative to control
MCF7 = experiment: Growth inhibition of human MCF7 cells at 10^-5 M incubated for 48 hrs by sulforhodamine B assay relative to control
UACC-62 = experiment: Growth inhibition of human UACC62 cells at 10^-5 M incubated for 48 hrs by sulforhodamine B assay relative to control
SK-MEL-5 = experiment: Growth inhibition of human SK-MEL-5 cells at 10^-5 M incubated for 48 hrs by sulforhodamine B assay relative to control
ACHN = experiment: Growth inhibition of human ACHN cells at 10^-5 M incubated for 48 hrs by sulforhodamine B assay relative to control
786-0 = experiment: Growth inhibition of human 786-0 cells at 10^-5 M incubated for 48 hrs by sulforhodamine B assay relative to control
NCI-H23 = experiment: Growth inhibition of human NCI-H23 cells at 10^-5 M incubated for 48 hrs by sulforhodamine B assay relative to control
UO-31 = experiment: Growth inhibition of human UO31 cells at 10^-5 M incubated for 48 hrs by sulforhodamine B assay relative to control
SN12C = experiment: Growth inhibition of human SN12C cells at 10^-5 M incubated for 48 hrs by sulforhodamine B assay relative to control
A549 = experiment: Growth inhibition of human A549/ATCC cells at 10^-5 M incubated for 48 hrs by sulforhodamine B assay relative to control
OVCAR-5 = experiment: Growth inhibition of human OVCAR5 cells at 10^-5 M incubated for 48 hrs by sulforhodamine B assay relative to control
SF-295 = experiment: Growth inhibition of human SF295 cells at 10^-5 M incubated for 48 hrs by sulforhodamine B assay relative to control
NCI-H522 = experiment: Growth inhibition of human NCI-H522 cells at 10^-5 M incubated for 48 hrs by sulforhodamine B assay relative to control
Aspergillus fumigatus [3] = experiment: Antifungal activity against Aspergillus fumigatus after 24 hrs by serial dilution method
MDA-MB-468 = experiment: Growth inhibition of human MDA-MB-468 cells at 10^-5 M incubated for 48 hrs by sulforhodamine B assay relative to control
OVCAR-8 = experiment: Growth inhibition of human OVCAR8 cells at 10^-5 M incubated for 48 hrs by sulforhodamine B assay relative to control
NCI-H460 = experiment: Growth inhibition of human NCI-H460 cells at 10^-5 M incubated for 48 hrs by sulforhodamine B assay relative to control
HCT-116 = experiment: Growth inhibition of human HCT116 cells at 10^-5 M incubated for 48 hrs by sulforhodamine B assay relative to control
EKVX = experiment: Growth inhibition of human EKVX cells at 10^-5 M incubated for 48 hrs by sulforhodamine B assay relative to control
HCT-15 = experiment: Growth inhibition of human HCT15 cells at 10^-5 M incubated for 48 hrs by sulforhodamine B assay relative to control
Candida albicans [4] = experiment: Antifungal activity against Candida albicans at 100 ug/ml by disc diffusion method; settings: read-out: IZ
OVCAR-3 = experiment: Growth inhibition of human OVCAR3 cells at 10^-5 M incubated for 48 hrs by sulforhodamine B assay relative to control
MDA-MB-435 = experiment: Growth inhibition of human MDA-MB-435 cells at 10^-5 M incubated for 48 hrs by sulforhodamine B assay relative to control
Malme-3M = experiment: Growth inhibition of human MALME-3M cells at 10^-5 M incubated for 48 hrs by sulforhodamine B assay relative to control
KM12 = experiment: Growth inhibition of human KM12 cells at 10^-5 M incubated for 48 hrs by sulforhodamine B assay relative to control
HL-60(TB) = experiment: Growth inhibition of human HL-60(TB) cells at 10^-5 M incubated for 48 hrs by sulforhodamine B assay relative to control
UACC-257 = experiment: Growth inhibition of human UACC257 cells at 10^-5 M incubated for 48 hrs by sulforhodamine B assay relative to control
K562 = experiment: Growth inhibition of human K562 cells at 10^-5 M incubated for 48 hrs by sulforhodamine B assay relative to control
MDA-MB-231 = experiment: Growth inhibition of human MDA-MB-231/ATCC cells at 10^-5 M incubated for 48 hrs by sulforhodamine B assay relative to control
M14 = experiment: Growth inhibition of human M14 cells at 10^-5 M incubated for 48 hrs by sulforhodamine B assay relative to control

Clc1nc2ccccc2cc1Cn1nnc(CSc2ccccc2)n1
10 µg/mL: MIC (Candida albicans [1])
active: growth inhibition (GI) (MOLT-4) | growth inhibition (GI) (NCI-H226) | growth inhibition (GI) (SR) | growth inhibition (GI) (HCC 2998) | growth inhibition (GI) (LOX IMVI) | growth inhibition (GI) (SK-MEL-2) | growth inhibition (GI) (SNB-19) | growth inhibition (GI) (BT-549) | growth inhibition (GI) (SK-OV-3) | growth inhibition (GI) (U-251) | growth inhibition (GI) (RXF 393) | growth inhibition (GI) (OVCAR-4) | growth inhibition (GI) (IGROV-1) | growth inhibition (GI) (SK-MEL-28) | growth inhibition (GI) (MCF7) | growth inhibition (GI) (UACC-62) | growth inhibition (GI) (SK-MEL-5) | growth inhibition (GI) (ACHN) | growth inhibition (GI) (786-0) | growth inhibition (GI) (NCI-H23) | growth inhibition (GI) (UO-31) | growth inhibition (GI) (SN12C) | growth inhibition (GI) (A549) | growth inhibition (GI) (OVCAR-5) | growth inhibition (GI) (SF-295) | growth inhibition (GI) (NCI-H522) | growth inhibition (GI) (MDA-MB-468) | growth inhibition (GI) (OVCAR-8) | growth inhibition (GI) (NCI-H460) | growth inhibition (GI) (HCT-116) | growth inhibition (GI) (EKVX) | growth inhibition (GI) (HCT-15) | growth inhibition (GI) (OVCAR-3) | growth inhibition (GI) (MDA-MB-435) | growth inhibition (GI) (Malme-3M) | growth inhibition (GI) (KM12) | growth inhibition (GI) (HL-60(TB)) | growth inhibition (GI) (UACC-257) | growth inhibition (GI) (K562) | growth inhibition (GI) (MDA-MB-231) | growth inhibition (GI) (M14)
25 µg/mL: MIC (Aspergillus fumigatus [3])
10 mm: zone of inhibition at 100 µg/mL (Candida albicans [4])
15 mm: zone of inhibition at 100 µg/mL (Aspergillus fumigatus [2])

Clc1nc2ccc(Br)cc2cc1Cn1nnnc1CSc1ccccc1
20 mm: zone of inhibition at 100 µg/mL (Aspergillus fumigatus [2])
active: growth inhibition (GI) (MOLT-4) | growth inhibition (GI) (NCI-H226) | growth inhibition (GI) (SR) | growth inhibition (GI) (HCC 2998) | growth inhibition (GI) (LOX IMVI) | growth inhibition (GI) (SK-MEL-2) | growth inhibition (GI) (SNB-19) | growth inhibition (GI) (BT-549) | growth inhibition (GI) (SK-OV-3) | growth inhibition (GI) (U-251) | growth inhibition (GI) (RXF 393) | growth inhibition (GI) (OVCAR-4) | growth inhibition (GI) (IGROV-1) | growth inhibition (GI) (SK-MEL-28) | growth inhibition (GI) (MCF7) | growth inhibition (GI) (UACC-62) | growth inhibition (GI) (SK-MEL-5) | growth inhibition (GI) (ACHN) | growth inhibition (GI) (786-0) | growth inhibition (GI) (NCI-H23) | growth inhibition (GI) (UO-31) | growth inhibition (GI) (SN12C) | growth inhibition (GI) (A549) | growth inhibition (GI) (OVCAR-5) | growth inhibition (GI) (SF-295) | growth inhibition (GI) (NCI-H522) | growth inhibition (GI) (MDA-MB-468) | growth inhibition (GI) (OVCAR-8) | growth inhibition (GI) (NCI-H460) | growth inhibition (GI) (HCT-116) | growth inhibition (GI) (EKVX) | growth inhibition (GI) (HCT-15) | growth inhibition (GI) (OVCAR-3) | growth inhibition (GI) (MDA-MB-435) | growth inhibition (GI) (Malme-3M) | growth inhibition (GI) (KM12) | growth inhibition (GI) (HL-60(TB)) | growth inhibition (GI) (UACC-257) | growth inhibition (GI) (K562) | growth inhibition (GI) (MDA-MB-231) | growth inhibition (GI) (M14)
12 mm: zone of inhibition at 100 µg/mL (Candida albicans [4])
5 µg/mL: MIC (Aspergillus fumigatus [3])
25 µg/mL: MIC (Candida albicans [1])

Fc1ccc2nc(Cl)c(Cn3nnc(CSc4ccccc4)n3)cc2c1
50 µg/mL: MIC (Candida albicans [1])
13 mm: zone of inhibition at 100 µg/mL (Aspergillus fumigatus [2])
2.5 µg/mL: MIC (Aspergillus fumigatus [3])
18 mm: zone of inhibition at 100 µg/mL (Candida albicans [4])
active: growth inhibition (GI) (MOLT-4) | growth inhibition (GI) (NCI-H226) | growth inhibition (GI) (SR) | growth inhibition (GI) (HCC 2998) | growth inhibition (GI) (LOX IMVI) | growth inhibition (GI) (SK-MEL-2) | growth inhibition (GI) (SNB-19) | growth inhibition (GI) (BT-549) | growth inhibition (GI) (SK-OV-3) | growth inhibition (GI) (U-251) | growth inhibition (GI) (RXF 393) | growth inhibition (GI) (OVCAR-4) | growth inhibition (GI) (IGROV-1) | growth inhibition (GI) (SK-MEL-28) | growth inhibition (GI) (MCF7) | growth inhibition (GI) (UACC-62) | growth inhibition (GI) (SK-MEL-5) | growth inhibition (GI) (ACHN) | growth inhibition (GI) (786-0) | growth inhibition (GI) (NCI-H23) | growth inhibition (GI) (UO-31) | growth inhibition (GI) (SN12C) | growth inhibition (GI) (A549) | growth inhibition (GI) (OVCAR-5) | growth inhibition (GI) (SF-295) | growth inhibition (GI) (NCI-H522) | growth inhibition (GI) (MDA-MB-468) | growth inhibition (GI) (OVCAR-8) | growth inhibition (GI) (NCI-H460) | growth inhibition (GI) (HCT-116) | growth inhibition (GI) (EKVX) | growth inhibition (GI) (HCT-15) | growth inhibition (GI) (OVCAR-3) | growth inhibition (GI) (MDA-MB-435) | growth inhibition (GI) (Malme-3M) | growth inhibition (GI) (KM12) | growth inhibition (GI) (HL-60(TB)) | growth inhibition (GI) (UACC-257) | growth inhibition (GI) (K562) | growth inhibition (GI) (MDA-MB-231) | growth inhibition (GI) (M14)
